The record followed here is patent US20100292283A1, “NOVEL PHENYL-ACETAMIDE AND PHENYL-PROPIONAMIDE DERIVATIVES USEFUL AS POTASSIUM CHANNEL MODULATORS” (priority 2007, published 2010).

SMILES strings stand for the structures.

The assay addresses T1, BK channels (Homo sapiens, UniProt Q12791).
T1 construct: expressed in transfected cells; host or cells: Xenopus laevis oocytes
Kind of assay: BK channel opening activity, two-electrode voltage clamp in Xenopus oocytes. The class given is cell-based. As to conditions: BK channels heterologously expressed in Xenopus oocytes, 0.01-31.6 μM compound. As to the method:
In this example the BK channel opening activity of Compound 8 is determined using BK channels heterologously expressed in Xenopus iaevis oocytes.
The electrical current through the BK channel was measured using conventional two-electrode voltage clamp. BK currents were activated by repeating ramp protocols. In brief, the membrane potential was continuously changed from −120 mV to +120 mV within a 2 s period. The threshold for BK activation is approximately +30 mV under control conditions. Compounds were applied for 100 s during which the ramp protocol was repeated 10 times with 10 s intervals. In between the ramp protocols the membrane potential was clamped at −80 mV. The first three compound applications were control blanks where the current level is allowed to stabilize. […]
In order to evaluate the ability of the compounds to shift the BK activation curve towards lower membrane potentials, the BK current was transformed into conductance by using Ohm's law g=I/(Ememb−Erev), where g is the conductance, I is the current, Ememb is the membrane potential and Erev is the reversal potential. […] The control conductance level at a membrane potential of +100 mV was calculated, and the compound effect was evaluated as the potential difference, […], to the membrane potential at which the same conductance level was obtained in the presence of compound. […]
A general note: In two-electrode clamp one electrode senses voltage and the other passes current.

T1 sequence (Q12791 whole entry): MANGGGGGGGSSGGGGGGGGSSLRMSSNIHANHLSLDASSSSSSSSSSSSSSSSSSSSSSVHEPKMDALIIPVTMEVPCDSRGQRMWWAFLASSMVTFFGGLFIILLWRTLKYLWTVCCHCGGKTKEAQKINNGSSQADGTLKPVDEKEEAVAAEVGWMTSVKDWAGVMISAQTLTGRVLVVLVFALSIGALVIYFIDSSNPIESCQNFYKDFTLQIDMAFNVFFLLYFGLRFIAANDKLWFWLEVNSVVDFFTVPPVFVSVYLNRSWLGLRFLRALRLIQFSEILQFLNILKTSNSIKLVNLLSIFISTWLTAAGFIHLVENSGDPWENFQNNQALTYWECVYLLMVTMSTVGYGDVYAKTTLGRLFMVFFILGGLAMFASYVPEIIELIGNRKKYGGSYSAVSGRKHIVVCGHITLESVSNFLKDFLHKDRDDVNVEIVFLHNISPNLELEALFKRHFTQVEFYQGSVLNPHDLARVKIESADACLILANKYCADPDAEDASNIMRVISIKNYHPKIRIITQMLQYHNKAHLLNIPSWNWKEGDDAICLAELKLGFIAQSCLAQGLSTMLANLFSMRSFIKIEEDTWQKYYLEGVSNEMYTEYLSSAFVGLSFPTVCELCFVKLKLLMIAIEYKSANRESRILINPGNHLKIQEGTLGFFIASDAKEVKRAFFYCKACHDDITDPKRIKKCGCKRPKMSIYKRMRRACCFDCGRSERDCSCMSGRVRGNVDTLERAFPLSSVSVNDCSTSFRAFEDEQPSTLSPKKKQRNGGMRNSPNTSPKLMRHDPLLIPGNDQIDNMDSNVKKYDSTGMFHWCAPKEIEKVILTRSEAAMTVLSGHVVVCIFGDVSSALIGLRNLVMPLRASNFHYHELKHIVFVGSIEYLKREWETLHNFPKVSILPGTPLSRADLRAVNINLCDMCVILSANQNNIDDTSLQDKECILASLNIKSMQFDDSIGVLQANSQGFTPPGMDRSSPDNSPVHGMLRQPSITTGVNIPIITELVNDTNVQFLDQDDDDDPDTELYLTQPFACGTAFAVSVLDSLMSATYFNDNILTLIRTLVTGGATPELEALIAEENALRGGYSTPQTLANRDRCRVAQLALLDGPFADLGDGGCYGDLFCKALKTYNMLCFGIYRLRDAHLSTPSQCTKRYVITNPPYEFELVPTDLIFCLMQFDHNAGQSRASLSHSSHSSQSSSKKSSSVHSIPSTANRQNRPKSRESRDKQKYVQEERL

`O=C(COc1cccc(Cl)c1)Nc1cc(Cl)ccc1-c1noc(=O)[nH]1` [Compound 8]: the “maximal left-shift for the BK-activation curve (ΔVmax)” value (fitted to sigmoidal logistic equation) is -94 mV. Also, the EC50 (ramp -120 to +120 mV, ΔV at control conductance level of +100 mV, read-out: EC50 for the left-shift of the BKca-activation curve) stood at 8.2 µM.
